Earlier results in US8911774B2, “Topical composition for anti-aging skin treatment using dual DNA repair mechanism and method of use” (Cellhealth Technologies Ltd., priority 2009, dated 2014).
Blank lines part the entries; values can stand above or below the compound they belong to.

Experiments:
[1] = test system: tyrosinase
[2] = test system: 8-OHdG
[3] = test system: p53
[4] = test system: melanin synthesis; conditions: at a concentration of 0.1%
[5] = test system: skin damage; conditions: shown clinically

tyrosinase-inhibition activity relative to Kojic acid [1]: 25 times
tyrosinase-inhibition activity relative to ascorbic acid [1]: 75 times
Compound: CC1(C)C=Cc2c(ccc3c2OC[C@@H](c2ccc(O)cc2O)C3)O1 [Glabridin]

Compound: CCCCCCCCC(CCCCCC)C(=O)OC[C@H](OC(=O)C(CCCCCC)CCCCCCCC)[C@H]1OC(=O)C(OC(=O)C(CCCCCC)CCCCCCCC)=C1OC(=O)C(CCCCCC)CCCCCCCC (stereo partly drawn) [tetrahexyldecyl ascorbate]
8-OHdG induced by UV-A radiation [2]: decreases
p53 expression induced by UV-B radiation [3]: decreases
reduction of melanin synthesis [4]: 80%

Compound: Tocotrienol
strength and effectiveness at repairing skin damage relative to regular Vitamin E [5]: 40-50 times
